For the assay, the target named is human MRGPRD (Homo sapiens, UniProt Q8TDS7). The assay is described as follows: MRGPRD antagonist activity, IP-One HTRF assay in CHO cells stably expressing human MRGPRD (versus 100 μM β-Alanine agonist). It is filed as cell-based. On the procedure: Chinese Hamster Ovary (CHO) cells stably expressing human MRGPRD (Eurofins, San Diego CA) were plated in a 384-well plate at 20,000 cells per well in 12 μL of Optimem (Fisher Scientific 11-058-021). Plates were kept in the incubator at 37° C. overnight. Antagonists were solubilized at a concentration of 10 mM in DMSO, and the agonists were solubilized to stock concentrations of either 50 mM in H2O (β-Alanine) or 10 mM in DMSO (all others) and then diluted in assay buffer (final concentrations of 5.7 mM Tris-HCl, 43 mM NaCl, 50 mM LiCl, pH=8). The concentration of DMSO was normalized across the plate. Antagonists were added to the plate using a Tecan D300 Digital Dispenser at nanoliter/picoliter volumes and 2 μL of agonists in assay buffer were added to each well for a final assay volume of 14 μL. Plates were covered and incubated for 1 h at 37° C. and then for 1 h at room temperature. IP-1 standards and HTRF detection reagents were added according to an IP-One—Gq Kit purchased from Cisbio (part number 621PAPEJ) and incubated in the dark for 1 h at room temperature. Assay plates were read on either a Molecular Devices SpectraMax iD5 plate reader or a BMG ClarioStar plate reader. The HTRF ratio was calculated form the raw data and graphed using GraphPad Prism to calculate IC50 values. Data are expressed as average IC50 values and average percent antagonism calculated as a percent of the maximum efficacy response. For these studies, the variability of the data was assessed by determining the standard error of mean (SEM).
Chain of human MRGPRD (Q8TDS7 whole entry): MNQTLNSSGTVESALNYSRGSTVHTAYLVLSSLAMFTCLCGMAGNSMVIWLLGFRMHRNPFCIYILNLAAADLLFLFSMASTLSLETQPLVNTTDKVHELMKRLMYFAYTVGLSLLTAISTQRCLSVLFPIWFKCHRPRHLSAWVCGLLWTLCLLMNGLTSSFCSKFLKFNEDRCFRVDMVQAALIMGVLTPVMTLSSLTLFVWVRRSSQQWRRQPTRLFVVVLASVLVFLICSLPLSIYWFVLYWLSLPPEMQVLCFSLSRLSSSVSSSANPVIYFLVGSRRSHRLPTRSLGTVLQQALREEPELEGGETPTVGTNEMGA
The activity ranges are denoted as follows: “+++++” denotes antagonist activity<100 nM; “++++” denotes antagonist activity between 100 and 500 nM; “+++” denotes activity between 500 and 1000 nM; “++” denotes activity between 1000 and 3000 nM; and “+” denotes activity>3000 nM.
For orientation: In TR-FRET formats the signal depends on donor and acceptor labels being close together.

The source of these data is US20260001871A1, “TRIAZOLE DERIVATIVES AS MODULATORS OF MAS-RELATED G-PROTEIN RECEPTOR D” (ESCIENT PHARMACEUTICALS, INC., priority 2022, published 2026).

The structures appear in SMILES notation.

Usually IC50 stands for the concentration that gives 50% inhibition. Lower therefore signals inhibition by little substance.

In turn, `COc1cc(-n2nnc(C(=O)Nc3ccncc3)c2C2CC2)ccc1C` [Compound 2-6] came in with an IC50 of 1000 to 3000 nM.
Then `CN(C)C(=O)c1cccc(-c2ccc(-n3nnc(C(=O)Nc4ccncc4)c3C3CC3)cc2)c1` [Compound 7-204], with 1000 to 3000 nM; and `Cc1cc(NC(=O)c2nnn(-c3ccc(-c4ccccc4)cc3)c2C2CC2)ccn1` [Compound 7-76], with 100 to 500 nM.
Then `COc1cc(-c2ccc(C#N)cc2)ccc1-n1nnc(C(=O)Nc2ccnc(C)c2)c1C(C)C` [Compound 17-12], with 100 to 500 nM; and `CCn1cc(C2(NC(=O)c3nnn(-c4ccc(-c5ccc(C#N)nc5)cc4)c3C(C)C)CC2)cn1` [Compound 18-27], with 1000 to 3000 nM; and `O=C(Nc1ccncc1)c1nnn(-c2ccc(-c3cnsc3)cc2)c1C1CC1` [Compound 7-79], with 100 to 500 nM.
Then `O=C(Nc1ccncc1)c1nnn(-c2ccc(-c3ccccc3CO)cc2)c1C1CC1` [Compound 7-151], with 500 to 1000 nM; and `Cc1nn(CC(F)(F)F)c(C)c1-c1ccc(-n2nnc(C(=O)Nc3ccncc3)c2C2CC2)cc1` [Compound 7-17], with under 100 nM.
For `CC(=O)c1cccc(-c2cc(-n3nnc(C(=O)Nc4ccncc4)c3C3CC3)ccc2F)c1` [Compound 7-245], the IC50 is 500 to 1000 nM.
Then `COc1cc(-c2ccc(-n3nnc(C(=O)Nc4ccncc4)c3C3CC3)cc2)ccc1C#N` [Compound 7-70], with 100 to 500 nM; and `N#Cc1cccc(-c2ccc(-n3nnc(C(=O)Nc4ccncc4)c3C3CC3)cc2)c1` [Compound 7-139], with 500 to 1000 nM; and `Cc1ccc(C2(NC(=O)c3nnn(-c4ccc(-c5c(C)nn(-c6ccccc6)c5C)cc4)c3C3CC3)CC2)cn1` [Compound 9-6], with under 100 nM.
Then `COCn1cc(-c2ccc(-n3nnc(C(=O)Nc4ccncc4)c3C3CC3)cc2)cn1` [Compound 7-158], with 500 to 1000 nM; and `Cn1cc(CNC(=O)c2nnn(-c3ccc(-c4ccccc4)cc3)c2C2CC2)cn1` [Compound 14-34], with 1000 to 3000 nM.
For the compound `Cc1nn(C)c(C)c1-c1ccc(-n2nnc(C(=O)Nc3ccncc3)c2C(C)C)cc1` [Compound 17-10], the IC50 was under 100 nM.
Then `N#CCc1ccc(-c2ccc(-n3nnc(C(=O)Nc4ccncc4)c3C3CC3)cc2)cc1` [Compound 7-23], with 100 to 500 nM; and `COc1ncc(-c2ccc(-n3nnc(C(=O)Nc4ccncc4)c3C3CC3)cc2)cn1` [Compound 7-194], with 1000 to 3000 nM; and `Cc1ccc(CNC(=O)c2nnn(-c3ccc(-c4c(C)nn(C)c4C)cc3)c2C2CC2)cn1` [Compound 15-12], with 100 to 500 nM.
Then `CCn1cc(CNC(=O)c2nnn(-c3ccc(-c4c(C)nn(C)c4C)cc3)c2C2CC2)cn1` [Compound 15-19], with 100 to 500 nM; and `NS(=O)(=O)c1ccccc1-c1ccc(-n2nnc(C(=O)Nc3ccncc3)c2C2CC2)cc1` [Compound 7-197], with 1000 to 3000 nM; and `COc1cc(-c2ccccc2)ccc1-n1nnc(C(=O)Nc2ccnc(C)c2)c1C1CC1` [Compound 7-272], with 500 to 1000 nM.
Then `Cc1nn2cccnc2c1-c1ccc(-n2nnc(C(=O)Nc3ccc(NS(C)(=O)=O)cc3)c2C2CC2)cc1` [Compound 10-7], with 1000 to 3000 nM; and `Cc1nocc1-c1ccc(-n2nnc(C(=O)Nc3ccncc3)c2C2CC2)cc1` [Compound 7-57], with 100 to 500 nM; and `CCn1cc(CNC(=O)c2nnn(-c3ccc(-c4ccc(C#N)cc4)cc3F)c2C(C)C)cn1` [Compound 17-19], with 100 to 500 nM.
`Cc1ccccc1-c1ccc(-n2nnc(C(=O)Nc3ccncc3)c2C2CC2)cc1` [Compound 7-96] had an IC50 of 100 to 500 nM.
Then `Cn1cc(C2(NC(=O)c3nnn(C4CC=C(c5ccc(C#N)cc5)CC4)c3C3CC3)CC2)cn1` (stereo not drawn) [Compound 12-6], with 1000 to 3000 nM; and `CCc1cc(NC(=O)c2nnn(-c3ccc(-c4c(C)nn(CC)c4C)cc3)c2C2CC2)ccn1` [Compound 9-16], with 100 to 500 nM; and `Cc1ccc(-n2nnc(C(=O)Nc3ccncc3)c2C2CCCC2)cc1` [Compound 3-6], with 1000 to 3000 nM.
Then `O=C(Nc1ccncc1)c1nnn(-c2ccc(-c3cccc(F)c3)cc2)c1C1CC1` [Compound 7-190], with 1000 to 3000 nM; and `Cc1cc(NC(=O)c2nnn(-c3ccc(-c4ccc(C#N)cc4)cn3)c2C2CC2)ccn1` [Compound 11-2], with 100 to 500 nM.
For the compound `Cc1nn(C)c(C)c1-c1ccc(-n2nnc(C(=O)Nc3ccncc3)c2C2CC2)cc1` [Compound 7-33], the IC50 is 100 to 500 nM.
Then `Cc1cc(NC(=O)c2nnn(-c3ccc(-c4ccccc4)cn3)c2C2CC2)ccn1` [Compound 7-279], with 500 to 1000 nM; and `COc1ccccc1CCNC(=O)c1nnn(-c2ccc(-c3ccccc3)cc2)c1C1CC1` [Compound 14-1], with over 3000 nM; and `Cc1ccc(-c2cccc(-n3nnc(C(=O)Nc4ccncc4)c3C3CC3)c2)cc1` [Compound 7-318], with 1000 to 3000 nM.
`COc1ccc(C2(NC(=O)c3nnn(-c4ccc(-c5ccccc5)cc4)c3C(C)C)CC2)cn1` [Compound 18-28]: the IC50 was in the range of 1000 to 3000 nM.
Then `Cc1nn2ccccc2c1-c1ccc(-n2nnc(C(=O)Nc3ccncc3)c2C2CC2)cc1` [Compound 7-18], with under 100 nM; and `Cc1cc(NC(=O)c2nnn(-c3ccc(-c4cnn(Cc5ccccc5)c4)cc3)c2C2CC2)ccn1` [Compound 7-19], with under 100 nM; and `CC(C)c1cc(NC(=O)c2nnn(-c3ccc(-c4ccccc4)cc3)c2C2CC2)ccn1` [Compound 14-16, 1-([1,1′-biphenyl]-4-yl)-5-cyclopropyl-N-(2-isopropylpyridin-4-yl)-1H-1,2,3-triazole-4-carboxamide], with 100 to 500 nM.
For `COc1ccccc1-c1ccc(-n2nnc(C(=O)Nc3ccncc3)c2C2CC2)c(C)c1` [Compound 7-244], the IC50 lay in the range of 500 to 1000 nM.
Then `Cc1ccc(CNC(=O)c2nnn(-c3cccc(-c4ccn(C)n4)c3)c2C2CC2)cn1` [Compound 7-332], with over 3000 nM; and `Cc1ccc(-n2nnc(C(=O)Nc3ccncc3)c2C2CC2)cc1-c1ccccc1` [Compound 5-7], with 1000 to 3000 nM; and `O=C(Nc1ccncc1)c1nnn(-c2cccc(-c3cnn(CC4CC4)c3)c2)c1C1CC1` [Compound 7-241], with 500 to 1000 nM.
Then `Cc1ncccc1CNC(=O)c1nnn(-c2ccc(-c3cccc(CC#N)c3)cc2)c1C1CC1` [Compound 16-3], with 100 to 500 nM; and `Cc1cc(NC(=O)c2nnn(-c3ccc(-c4c(C)nn(-c5ccccc5)c4C)cc3F)c2C2CC2)ccn1` [Compound 7-223], with under 100 nM.
Then `CCn1nc(C)c(-c2ccc(-n3nnc(C(=O)NCc4cccnc4)c3C3CC3)cc2)c1C` [Compound 9-25], with 100 to 500 nM.
The compound `CC(=O)c1cccc(-c2ccc(-n3nnc(C(=O)Nc4ccncc4)c3C3CC3)cc2)c1` [Compound 7-80] returned an IC50 of 100 to 500 nM.
The compound `O=C(Nc1ccnc2[nH]ncc12)c1nnn(-c2ccc(-c3ccccc3)cc2)c1C1CC1` [Compound 14-29] came in with an IC50 of 1000 to 3000 nM.
Then `O=C(Nc1ccncc1)c1nnn(-c2ccc(-c3ccccc3O)cc2)c1C1CC1` [Compound 7-161], with 500 to 1000 nM; and `Cc1cc(-n2nnc(C(=O)Nc3ccncc3)c2C2CC2)ccc1-c1c(C)nn(C)c1C` [Compound 7-315], with 1000 to 3000 nM; and `O=C(Nc1ccncc1)c1nnn(-c2ccc(-c3cccc(C(F)(F)F)c3)cc2)c1C1CC1` [Compound 7-155], with 500 to 1000 nM.
With `O=C(Nc1ccncc1)c1nnn(-c2cccc(-c3cnn(CC(F)(F)F)c3)c2)c1C1CC1` [Compound 7-248], the IC50 was 500 to 1000 nM.
Then `Cc1ccc(C2(NC(=O)c3nnn(-c4ccc(-c5c(C)nn(-c6ccccc6)c5C)cc4F)c3C3CC3)CC2)cn1` [Compound 7-225], with under 100 nM; and `O=C(Nc1ccncc1)c1nnn(-c2cccc(-c3cccc(Cl)c3)c2)c1C1CC1` [Compound 7-324], with 1000 to 3000 nM; and `CCc1ccc(C2(NC(=O)c3nnn(-c4ccc(-c5ccc(C#N)cc5)cc4)c3C3CC3)CC2)cn1` [Compound 18-2], with 100 to 500 nM.
Then `CCc1cc(NC(=O)c2nnn(-c3ccc(-c4c(C)nn(-c5ccccc5)c4C)cc3)c2C2CC2)ccn1` [Compound 9-3], with under 100 nM; and `Cc1ccc(-n2nnc(C(=O)Nc3ccncc3)c2C2CC2)c(F)c1` [Compound 2-2], with 500 to 1000 nM; and `CC(=O)c1ccc(-c2cccc(-n3nnc(C(=O)Nc4ccncc4)c3C3CC3)c2)s1` [Compound 7-265], with 500 to 1000 nM.
`O=C(Nc1ccnc(C(F)F)c1)c1nnn(-c2ccc(-c3ccccc3)cc2)c1C1CC1` [Compound 14-22] yielded an IC50 of 500 to 1000 nM.
Then `O=C(Nc1ccncc1)c1nnn(-c2cccc(-c3cnn(C(F)F)c3)c2)c1C1CC1` [Compound 7-329], with over 3000 nM; and `Cc1cc(NC(=O)c2nnn(-c3ccc(-c4ccccc4)cc3OC(F)(F)F)c2C2CC2)ccn1` [Compound 7-82], with 100 to 500 nM.
